Test results from patent US9617272B2, “Tricyclic compounds as inhibitors of immunosuppression mediated by tryptophan metabolization” (NewLink Genetics Corporation, priority 2013, dated 2017).

Key:
[1] = target: purified human TDO protein (Homo sapiens (Human), UniProt P48775); experiment: Enzymatic TDO assay; type: biochemical
Experimental: Differently from the IDO activity assay, no methylene blue is added to the assay. The inhibitors were initially diluted in DMSO at 100 mM and were diluted in potassium phosphate 50 mM, added to the reaction mixture at final concentrations raging from 300 μM to 5 nM and preincubated with the enzyme for 5 min at 25° C. The reaction was started by addition of L-tryptophan to 200 μM and incubated 15 min at 37° C. The reaction was stopped by addition of 0.5 vol of 30% trichloroacetic acid and incubated 30 min at 60° C. to hydrolyze N-formylkynurenine to kynurenine. The reaction was centrifuged at 3400 g for 5 min to remove precipitated protein and the supernatant was reacted with 2% (w/v) of p-dimethylaminobenzaldehyde in acetic acid. The reaction was incubated 10 min at 25° C. and read at 480 nm in a spectrophotometer. Control samples with no TDO inhibitor, or with no TDO enzyme were used as controls to set the parameters for the non-linear regressions necessary for determination of the IC50 for each compound. Nonlinear regressions and determination of the IC50 values were performed using the GraphPad Prism 4 software.

[2] = target: purified human IDO protein (Homo sapiens (Human), UniProt P14902); experiment: Enzymatic IDO assay; type: biochemical
Experimental: Expression vectors for human indoleamine-2,3-dioxygenase (IDO) protein were prepared by amplification of a 1219 bp fragment of the sequence present in vector phIDO6His cDNA with primers 5′-ggagcatgcta[…]-3′ (SEQ ID NO: 1) and 5′gagagatct[…]-3′ (SEQ ID NO: 2) and cloning the SphI-BglII 1213 bp fragment into pQE70 (Qiagen), to yield vector pQE70-hIDO. This construct adds 2 extra amino acids and a 6-Histidine tag to the C-terminus of the natural human IDO protein while preserving intact the natural start codon and N-terminus amino acid sequence.
Plasmid pQE70-hIDO was transformed into M15(pREP4) cells (Qiagen) and clones were selected in LB-agar plates supplemented with carbenicillin 50 μg/mL and kanamycin 30 μg/mL. Protein expression was carried out by growing an overnight culture of the M15pREP4/pQE70-hIDO clone in 100 mL LB supplemented with 100 μg/mL carbenicillin, 50 μg/mL kanamycin and 50 μg/mL of L-tryptophan (LBCKT medium). 40 mL of this culture were inoculated into 750 mL of LBCKT for 4 hours at 37° C. This culture was diluted 1:10 into LBCKT medium and cultured for another 2 hours at 37° C. until OD600 was higher than 0.8. At this point the cultures were inoculated with Hemin to 7 μM and L-Tryptophan to 75 μg/mL and incubated at 37° C. for 2 h. Induction of protein expression was carried out by supplementing the cultures with IPTG to 1 mM, PMSF to 200 μM, EDTA to 1 mM and L-tryptophan to 50 μg/mL. Incubation was continued for additional 16 h at 25° C. Cells were collected by centrifugation, and the cell pellets were washed with PBS buffer supplemented with 200 μM PMSF and 1 mM EDTA and stored at −80° C. until protein purification.
The equivalent of 16 L of culture were processed in one batch of purification. Cell pellets were thawed, resuspended in 50 mM potassium phosphate buffer pH 7.0, 200 μM PMSF, 1 mM EDTA, 1 mg/mL lysozyme to 10 mL per liter of bacterial culture and incubated 30 minutes on ice. Cells were then lysed by sonication. Cell lysates were centrifuged 20 min at 20000 g and the supernatant was filtered through 0.45 μm filters. The filtered supernatant was loaded onto a 60 mL phosphocellulose column equilibrated with 50 mM potassium phosphate buffer pH 6.5 (KPB) at 1-3 mL/min. The column was washed with 3 volumes of 50 mM KPB, 3 volumes of 100 mM KPB and the protein was eluted with 15 volumes of a linear gradient of 100-500 mM KPB. Fractions were collected and IDO activity assay was performed by measuring kynurenine production. This was carried out by mixing 50 μL of each fraction with 100 μL of reaction mix to yield a final concentration of 50 mM KPB buffer, 20 mM ascorbic acid, 200 μg/mL catalase, 20 μM methylene blue and 400 μM L-tryptophan. […] Collected fractions were assayed by IDO enzymatic assay described above and the positive fractions were pooled and concentrated by ultrafiltration and dialyzed against a buffer containing 250 mM KPB, 50% glycerol.
The inhibitors were initially diluted in DMSO at 100 mM and were diluted in potassium phosphate 50 mM, added to the reaction mixture at final concentrations raging from 1 mM to 5 nM and preincubated with the enzyme for 5 min at 25° C. The reaction was started by addition of L-tryptophan to 200 μM and incubated 15 min at 37° C. The reaction was stopped by addition of 0.5 vol of 30% trichloroacetic acid and incubated 30 min at 60° C. to hydrolyze N-formylkynurenine to kynurenine. The reaction was centrifuged at 3400 g for 5 min to remove precipitated protein and the supernatant was reacted with 2% (w/v) of p-dimethylaminobenzaldehyde in acetic acid. The reaction was incubated 10 min at 25° C. and read at 480 nm in a spectrophotometer.

purified human TDO protein, sequence (P48775 whole entry): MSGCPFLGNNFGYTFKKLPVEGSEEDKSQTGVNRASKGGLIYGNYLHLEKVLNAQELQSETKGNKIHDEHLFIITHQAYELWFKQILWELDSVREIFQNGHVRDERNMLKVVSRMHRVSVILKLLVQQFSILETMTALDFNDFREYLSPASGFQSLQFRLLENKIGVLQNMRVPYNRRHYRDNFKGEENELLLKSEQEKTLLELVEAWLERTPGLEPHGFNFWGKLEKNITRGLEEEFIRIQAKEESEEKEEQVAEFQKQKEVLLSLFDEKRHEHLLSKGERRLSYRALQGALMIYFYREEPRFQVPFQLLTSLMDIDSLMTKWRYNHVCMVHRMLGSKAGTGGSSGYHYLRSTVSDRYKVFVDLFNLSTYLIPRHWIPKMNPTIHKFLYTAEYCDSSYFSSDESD
purified human IDO protein, sequence (P14902 whole entry P110S/E119G, the tested form may be a part): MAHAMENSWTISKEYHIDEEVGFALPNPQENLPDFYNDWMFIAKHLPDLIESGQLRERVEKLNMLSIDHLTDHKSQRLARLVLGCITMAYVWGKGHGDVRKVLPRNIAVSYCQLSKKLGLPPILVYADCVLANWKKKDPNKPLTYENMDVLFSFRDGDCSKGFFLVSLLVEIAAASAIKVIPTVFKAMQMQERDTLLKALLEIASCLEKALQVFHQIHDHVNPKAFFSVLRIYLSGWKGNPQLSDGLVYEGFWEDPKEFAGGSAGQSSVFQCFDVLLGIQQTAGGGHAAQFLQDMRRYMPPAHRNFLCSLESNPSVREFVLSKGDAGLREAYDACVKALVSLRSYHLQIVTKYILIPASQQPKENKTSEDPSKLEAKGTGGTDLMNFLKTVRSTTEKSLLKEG

O=C(CC1c2ccccc2-c2cnnn21)C1CCCCC1 (centres unmarked) [Compound 53, 2-(8H-[1,2,3]triazolo[5,1-a]isoindol-8-yl)-1-cyclohexylethan-1-one]
IC50 [1]: 10 to 100 µM | IC50 [2]: 10 to 100 µM

OC(CC1c2ccccc2-c2cnnn21)C1CCC(F)(F)CC1 (centres unmarked) [Compound 68, 2-(8H-[1,2,3]triazolo[5,1-a]isoindol-8-yl)-1-(4,4-difluorocyclohexyl)ethan-1-ol]
IC50 [1]: 1 to 10 µM | IC50 [2]: 10 to 100 µM

c1ccc2c(c1)Cc1cn[nH]c1-2 [Compound 101]
IC50 [1]: 1 to 10 µM | IC50 [2]: > 100 µM

OC(CC1c2ccccc2-c2nncn21)C1CCCCC1 (centres unmarked) [Compound 69, 2-(5H-[1,2,4]triazolo[3,4-a]isoindol-5-yl)-1-cyclohexylethan-1-ol]
IC50 [1]: > 100 µM | IC50 [2]: > 100 µM

O=C(CC1c2ccccc2-n2cncc21)C1CCCCC1 (centres unmarked) [Compound 27, 1-cyclohexyl-2-(9H-imidazo[1,5-a]indol-9-yl)ethan-1-one]
IC50 [1]: < 1 µM | IC50 [2]: 1 to 10 µM

OC(CC1c2ccccc2-c2cnnn21)C1CCCCC1 (centres unmarked) [Compound 66, 2-(8H-[1,2,3]triazolo[5,1-a]isoindol-8-yl)-1-cyclohexylethan-1-ol]
IC50 [1]: 10 to 100 µM | IC50 [2]: 10 to 100 µM

O=C(CC1c2ccccc2-c2nncn21)C1CCCCC1 (centres unmarked) [Compound 43, 2-(5H-[1,2,4]triazolo[3,4-a]isoindol-5-yl)-1-cyclohexylethan-1-one]
IC50 [1]: > 100 µM | IC50 [2]: > 100 µM

OC(CC1c2ccccc2-n2cncc21)C1CCCCC1 (centres unmarked) [Compound 70, 1-cyclohexyl-2-(9H-imidazo[1,5-a]indol-9-yl)ethan-1-ol]
IC50 [1]: < 1 µM

O=C(CC1c2ccccc2-c2cnnn21)C1CCC(F)(F)CC1 (centres unmarked) [Compound 54, 2-(8H-[1,2,3]triazolo[5,1-a]isoindol-8-yl)-1-(4,4-difluorocyclohexyl)ethan-1-one]
IC50 [1]: > 100 µM | IC50 [2]: > 100 µM
